Measurements taken from the supplement of paper PMC13380429.

Experiments:
Settings in all cases: 72 h
[1] = system: U2OS; experiment: relative viability EC50 (midpoint between 100% and the lowest measured viability); higher = less toxic
[2] = system: HepG2; experiment: as above
[3] = system: Caco-2; experiment: as above
[4] = system: Calu-3; experiment: as above
[5] = system: Vero E6; experiment: as above
[6] = system: U2OS; experiment: cell viability relative to DMSO; higher = less toxic
[7] = system: HepG2; experiment: as above
[8] = system: Caco-2; experiment: as above
[9] = system: Calu-3; experiment: as above
[10] = system: Vero E6; experiment: as above
[11] = system: U2OS; experiment: drug sensitivity score (DSS) for viability; higher = more toxic; extreme values may be limits of the assay
[12] = system: HepG2; experiment: as above
[13] = system: Caco-2; experiment: as above
[14] = system: Calu-3; experiment: as above
[15] = system: Vero E6; experiment: as above

SMILES | relative viability EC50 [1] [µM] | relative viability EC50 [2] [µM] | relative viability EC50 [3] [µM] | relative viability EC50 [4] [µM] | relative viability EC50 [5] [µM] | cell viability ([6]; 1 nM) [%] | cell viability ([6]; 10 nM) [%] | cell viability ([6]; 100 nM) [%] | cell viability ([6]; 1000 nM) [%] | cell viability ([6]; 10000 nM) [%] | cell viability ([7]; 1 nM) [%] | cell viability ([7]; 10 nM) [%] | cell viability ([7]; 100 nM) [%] | cell viability ([7]; 1000 nM) [%] | cell viability ([7]; 10000 nM) [%] | cell viability ([8]; 1 nM) [%] | cell viability ([8]; 10 nM) [%] | cell viability ([8]; 100 nM) [%] | cell viability ([8]; 1000 nM) [%] | cell viability ([8]; 10000 nM) [%] | cell viability ([9]; 1 nM) [%] | cell viability ([9]; 10 nM) [%] | cell viability ([9]; 100 nM) [%] | cell viability ([9]; 1000 nM) [%] | cell viability ([9]; 10000 nM) [%] | cell viability ([10]; 1 nM) [%] | cell viability ([10]; 10 nM) [%] | cell viability ([10]; 100 nM) [%] | cell viability ([10]; 1000 nM) [%] | cell viability ([10]; 10000 nM) [%] | drug sensitivity score [11] | drug sensitivity score [12] | drug sensitivity score [13] | drug sensitivity score [14] | drug sensitivity score [15]
O=C(O[C@H]1C[C@H]2CC[C@@H](C1)[N+]21CCCC1)C(O)(c1ccccc1)c1ccccc1 [trospium] | > 10 | > 10 | > 10 | > 10 | > 10 | 95.7 | 97.5 | 101 | 99.1 | 88.9 | 98.3 | 93.8 | 107 | 94.8 | 108 | 92.8 | 97.1 | 94.7 | 98.3 | 99.9 | 101 | 101 | 97.2 | 98.2 | 94.3 | 95.6 | 99.5 | 93 | 95.3 | 102 | 0 | 0 | 0 | 0 | 0
O=c1cc[nH]c(=O)[nH]1 [uracil] | > 10 | > 10 | > 10 | > 10 | > 10 | 91.7 | 98.7 | 94.8 | 102 | 103 | 98.6 | 94 | 99.6 | 102 | 117 | 91.5 | 90.6 | 91.3 | 93.8 | 98.5 | 91.8 | 95.2 | 93 | 94.6 | 95.6 | 96.2 | 88.4 | 91.8 | 89.5 | 112 | 0 | 0 | 0 | 0 | 0
CC[C@]12CCCN3CCc4c(n(c5ccccc45)C(=O)C1)[C@@H]32 [vinburnine] | > 10 | 1.37 | > 10 | > 10 | > 10 | 94.2 | 97.4 | 96.7 | 95.6 | 79.3 | 93.6 | 89.9 | 102 | 78.7 | 32.2 | 94.4 | 98.5 | 106 | 114 | 78.6 | 96.8 | 97.4 | 93.7 | 97.7 | 88.8 | 103 | 96.6 | 100 | 96.9 | 86.2 | 1.2 | 6.8 | 0.4 | 0 | 0.4
C[C@@H](c1ncncc1F)[C@](O)(Cn1cncn1)c1ccc(F)cc1F [voriconazole] | > 10 | > 10 | > 10 | > 10 | > 10 | 103 | 101 | 97.6 | 97.4 | 109 | 100 | 106 | 86.9 | 107 | 122 | 101 | 92.5 | 102 | 85.6 | 110 | 92.4 | 97.5 | 92.4 | 99.8 | 110 | 98.8 | 101 | 97.8 | 108 | 105 | 0 | 0 | 0 | 0 | 0
O=C[C@H](O)[C@@H](O)[C@H](O)CO [xylose] | > 10 | > 10 | > 10 | > 10 | > 10 | 95.1 | 95.3 | 94.5 | 96.4 | 96.3 | 106 | 101 | 101 | 98 | 96.8 | 94 | 94.3 | 94.2 | 90.4 | 92.7 | 104 | 93 | 98.4 | 97.9 | 85.4 | 96.7 | 96.1 | 99.4 | 94.3 | 92.6 | 0 | 0 | 0 | 0.3 | 0
N=C(N)NC(=O)c1cnn(-c2cccc3ncccc23)c1C1CC1 [zoniporide] | > 10 | > 10 | > 10 | > 10 | > 10 | 98.8 | 101 | 104 | 100 | 98.6 | 89.9 | 99.2 | 105 | 103 | 101 | 89.6 | 91.8 | 101 | 102 | 95 | 99.8 | 95.1 | 93.8 | 94.5 | 99.6 | 92.7 | 102 | 94.9 | 97.5 | 104 | 0 | 0 | 0 | 0 | 0
